Experimental data as given in patent US7851474B2, “Dipiperazinyl ketones and related analogues” (Neurogen Corporation, priority 2005, dated 2010).

biological target: T1, chimeric human H3 receptor (Homo sapiens, UniProt Q9Y5N1, E19D); assay: Chimeric human H3 receptor GTP binding assay (agonist-stimulated GTP-gamma35S binding, Example 7); type: biochemical; conditions: Table II; assay of Example 7; "*" in Ki; read-out: Ki
T1 construct: made in house; host or cells: Sf9 insect cells (baculovirus infection); P2 membrane preparation
T1 sequence (Q9Y5N1 with tags, fused parts or gaps E19D): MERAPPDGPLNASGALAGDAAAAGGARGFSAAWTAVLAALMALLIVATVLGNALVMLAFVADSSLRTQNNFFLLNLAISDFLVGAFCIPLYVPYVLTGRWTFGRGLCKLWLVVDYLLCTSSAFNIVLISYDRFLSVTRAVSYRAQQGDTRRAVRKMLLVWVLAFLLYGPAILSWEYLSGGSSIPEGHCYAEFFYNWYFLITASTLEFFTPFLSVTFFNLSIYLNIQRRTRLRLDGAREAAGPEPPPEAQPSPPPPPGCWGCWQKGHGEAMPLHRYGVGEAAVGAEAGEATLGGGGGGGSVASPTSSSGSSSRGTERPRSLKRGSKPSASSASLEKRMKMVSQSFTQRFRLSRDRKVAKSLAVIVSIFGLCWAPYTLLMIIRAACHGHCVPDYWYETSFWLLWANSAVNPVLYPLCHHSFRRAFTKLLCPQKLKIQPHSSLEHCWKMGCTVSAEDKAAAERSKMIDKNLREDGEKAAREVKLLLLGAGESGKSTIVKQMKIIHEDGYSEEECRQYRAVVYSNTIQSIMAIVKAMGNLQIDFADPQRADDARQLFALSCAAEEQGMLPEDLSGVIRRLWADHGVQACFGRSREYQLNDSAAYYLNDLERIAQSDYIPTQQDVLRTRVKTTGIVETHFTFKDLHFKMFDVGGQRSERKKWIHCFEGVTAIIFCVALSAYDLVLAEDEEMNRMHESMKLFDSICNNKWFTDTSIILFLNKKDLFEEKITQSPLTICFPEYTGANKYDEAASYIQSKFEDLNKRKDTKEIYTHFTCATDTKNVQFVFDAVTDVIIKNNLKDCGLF
Summary of the method: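 Sf9 membranes co-expressing the chimeric receptor and heterotrimeric G-protein subunits, 35 μg protein per tube, in pH 7.4 Tris buffer with 10 μM GDP. Test compounds at 10^−10 to 10^−6 M with 1 μM histamine, 60 min at room temperature. Filter-bound GTP-gamma^35S read by scintillation; IC50 from non-linear regression of dose-response curves.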

Ki [nM] | SMILES
< 1000 | O=C(CN1CCN(c2ccc(C(=O)N3CCSCC3)cc2)CC1)N1CCN(C2CCC2)CC1 [Compound 1094, 4-(4-{4-[2-(4-cyclobutylpiperazin-1-yl)-2-oxoethyl]piperazin-1-yl}benzoyl) thiomorpholine]
< 1000 | CC1CN(C(=O)c2ccc(N3CCN(CC(=O)N4CCN(C5CCC5)CC4)CC3)cc2)CC(C)O1 (centres unmarked) [Compound 1095, 4-(4-{4-[2-(4-cyclobutylpiperazin-1-yl)-2-oxoethyl]piperazin-1-yl}benzoyl)-2,6-dimethylmorpholine]
< 1000 | CC(=O)c1ccc(N2CCN(CC(=O)N3CCN(C4CCC4)CC3)C(=O)C2)cc1 [Compound 1096, 4-(4-acetylphenyl)-1-[2-(4-cyclobutylpiperazin-1-yl)-2-oxoethyl]piperazin-2-one]
< 1000 | CN(C)c1ccc(-c2cnc(N3CCN(CC(=O)N4CCN(C5CCC5)CC4)CC3)cn2)cc1 [Compound 1097, 4-(5-{4-[2-(4-cyclobutylpiperazin-1-yl)-2-oxoethyl]piperazin-1-yl}pyrazin-2-yl)-N,N-dimethylaniline]
< 1000 | N#Cc1ccc(-c2cnc(N3CCN(CC(=O)N4CCN(C5CCC5)CC4)CC3)cn2)cc1 [Compound 1098, 4-(5-{4-[2-(4-cyclobutylpiperazin-1-yl)-2-oxoethyl]piperazin-1-yl}pyrazin-2-yl)benzonitrile]
< 1000 | CN(C)c1ccc(-c2ccc(N3CCN(CC(=O)N4CCN(C5CCC5)CC4)CC3)nn2)cc1 [Compound 1099, 4-(6-{4-[2-(4-cyclobutylpiperazin-1-yl)-2-oxoethyl]piperazin-1-yl}pyndazin-3-yl)-N,N-dimethylaniline]
< 1000 | N#Cc1ccc(-c2ccc(N3CCN(CC(=O)N4CCN(C5CCC5)CC4)CC3)nn2)cc1 [Compound 1100, 4-(6-{4-[2-(4-cyclobutylpiperazin-1-yl)-2-oxoethyl]piperazin-1-yl}pyridazin-3-yl)benzonitrile]
< 1000 | O=C(CN1CCN(c2ccc(C(=O)N3CCSCC3)cn2)CC1)N1CCN(C2CCC2)CC1 [Compound 1101]
< 1000 | C=CCN1CCN(C(=O)CN2CCN(c3ccc(OC)cc3)C(C)C2)CC1 (centres unmarked) [Compound 1102, 4-[2-(4-allylpiperazin-1-yl)-2-oxoethyl]-1-(4-methoxyphenyl)-2-methylpiperazine]
< 1000 | COc1ccc(N2CCN(CC(=O)N3CCN(C4CCC4)CC3)CC2C)cc1 (centres unmarked) [Compound 1103, 4-[2-(4-cyclobutylpiperazin-1-yl)-2-oxoethyl]-1-(4-methoxyphenyl)-2-methylpiperazine]
< 1000 | Cc1cccc(N2CCN(CC(=O)N3CCN(C4CCC4)CC3)CC2C)c1 (centres unmarked) [Compound 1104, 4-[2-(4-cyclobutylpiperazin-1-yl)-2-oxoethyl]-2-methyl-1-(3-methylphenyl)piperazine]
< 1000 | Cc1ccc(N2CCN(CC(=O)N3CCN(C4CCC4)CC3)CC2C)cc1 (centres unmarked) [Compound 1105, 4-[2-(4-cyclobutylpiperazin-1-yl)-2-oxoethyl]-2-methyl-1-(4-methylphenyl)piperazine]
< 1000 | COc1ccc(N2CCN(CC(=O)N3CCN(C4CCCCC4)CC3)CC2C)cc1 (centres unmarked) [Compound 1106, 4-[2-(4-cyclohexylpiperazin-1-yl)-2-oxoethyl]-1-(4-methoxyphenyl)-2-methylpiperazine]
< 1000 | Cc1ccc(N2CCN(CC(=O)N3CCN(C4CCCC4)CC3)CC2C)cc1 (centres unmarked) [Compound 1109, 4-[2-(4-cyclopentylpiperazin-1-yl)-2-oxoethyl]-2-methyl-1-(4-methylphenyl)piperazine]
< 1000 | CCN1CCN(C(=O)CN2CCN(c3ccc(OC)cc3)C(C)C2)CC1 (centres unmarked) [Compound 1110, 4-[2-(4-ethylpiperazin-1-yl)-2-oxoethyl]-1-(4-methoxyphenyl)-2-methylpiperazine]
< 1000 | COc1ccc(N2CCN(CC(=O)N3CCN(C(C)C)CC3)CC2C)cc1 (centres unmarked) [Compound 1111, 4-[2-(4-isopropylpiperazin-1-yl)-2-oxoethyl]-1-(4-methoxyphenyl)-2-methylpiperazine]
< 1000 | CCC(C)N1CCN(C(=O)CN2CCN(c3ccc(OC)cc3)C(C)C2)CC1 (centres unmarked) [Compound 1113, 4-[2-(4-sec-butylpiperazin-1-yl)-2-oxoethyl]-1-(4-methoxyphenyl)-2-methylpiperazine]
< 1000 | CCC(C)N1CCN(C(=O)CN2CCN(c3cccc(C)c3)C(C)C2)CC1 (centres unmarked) [Compound 1114, 4-[2-(4-sec-butylpiperazin-1-yl)-2-oxoethyl]-2-methyl-1-(3-methylphenyl)piperazine]
< 1000 | O=C(CN1CCC(N2CCOCC2)CC1)N1CCN(C2CCC2)CC1 [Compound 1115, 4-{1-[2-(4-cyclobutylpiperazin-1-yl)-2-oxoethyl]piperidin-4-yl}morpholine]
< 1000 | CCC(C)N1CCN(C(=O)CN2CCC(N3CCOCC3)CC2)CC1 (centres unmarked) [Compound 1116, 4-{1-[2-(4-sec-butylpiperazin-1-yl)-2-oxoethyl]piperidin-4-yl}morpholine]
< 1000 | CN(C)c1cccc(-c2ccc(N3CCN(CC(=O)N4CCN(C5CCC5)CC4)CC3)cc2)c1 [Compound 1117, 4′-{1-[2-(4-cyclobutylpiperazin-1-yl)-2-oxoethyl]piperazin-1-yl}-N,N-dimethylbiphenyl-3-amine]
< 1000 | N#Cc1cccc(-c2ccc(N3CCN(CC(=O)N4CCN(C5CCC5)CC4)CC3)cc2)c1 [Compound 1118, 4′-{1-[2-(4-cyclobutylpiperazin-1-yl)-2-oxoethyl]piperazin-1-yl}biphenyl-3-carbonitrile]
< 1000 | N#Cc1ccc(-c2ccc(N3CCN(CC(=O)N4CCN(C5CCC5)CC4)CC3)cc2)cc1 [Compound 1119, 4′-{1-[2-(4-cyclobutylpiperazin-1-yl)-2-oxoethyl]piperazin-1-yl}biphenyl-4-carbonitrile]
< 1000 | O=C(O)c1ccc(N2CCN(CC(=O)N3CCN(C4CCC4)CC3)CC2)cc1 [Compound 1120, 4-{1-[2-(4-cyclobutylpiperazin-1-yl)-2-oxoethyl]piperazin-1-yl}benzoic acid]
< 1000 | N#Cc1ccc(N2CCN(CC(=O)N3CCN(C4CCC4)CC3)CC2)cc1 [Compound 1121, 4-{1-[2-(4-cyclobutylpiperazin-1-yl)-2-oxoethyl]piperazin-1-yl}benzonitrile]
< 1000 | CNC(=O)c1ccc(N2CCN(CC(=O)N3CCN(C4CCC4)CC3)CC2)cc1 [Compound 1122, 4-{1-[2-(4-cyclobutylpiperazin-1-yl)-2-oxoethyl]piperazin-1-yl}-N-methylbenzamide]
< 1000 | CN(C)C(=O)c1ccc(N2CCN(CC(=O)N3CCN(C4CCC4)CC3)CC2)cc1 [Compound 1123, 4-{1-[2-(4-cyclobutylpiperazin-1-yl)-2-oxoethyl]piperazin-1-yl}-N,N-dimethylbenzamide]
< 1000 | CCNC(=O)c1ccc(N2CCN(CC(=O)N3CCN(C4CCC4)CC3)CC2)cc1 [Compound 1124, 4-{1-[2-(4-cyclobutylpiperazin-1-yl)-2-oxoethyl]piperazin-1-yl}-N-ethylbenzamide]
< 1000 | CCN(CC)C(=O)c1ccc(N2CCN(CC(=O)N3CCN(C4CCC4)CC3)CC2)cc1 [Compound 1125, 4-{4-[2-(4-cyclobutylpiperazin-1-yl)-2-oxoethyl]piperazin-1-yl}-N,N-diethylbenzamide]
